Data on 24 compounds can be found in patent publication US10975083B2, “Blood-brain barrier-penetrant dopamine-β-hydroxylase inhibitors” (BIAL—PORTELA & Cᵃ, S.A., priority 2016, dated 2021).

The test deals with T1, DβH (Homo sapiens, UniProt P09172).
T1 construct: reaction mixture (total volume 500 μl) contained: cellular homogenate (75 μg total protein); host or cells: SK-N-SH cell homogenate
T1 sequence (P09172 1-617): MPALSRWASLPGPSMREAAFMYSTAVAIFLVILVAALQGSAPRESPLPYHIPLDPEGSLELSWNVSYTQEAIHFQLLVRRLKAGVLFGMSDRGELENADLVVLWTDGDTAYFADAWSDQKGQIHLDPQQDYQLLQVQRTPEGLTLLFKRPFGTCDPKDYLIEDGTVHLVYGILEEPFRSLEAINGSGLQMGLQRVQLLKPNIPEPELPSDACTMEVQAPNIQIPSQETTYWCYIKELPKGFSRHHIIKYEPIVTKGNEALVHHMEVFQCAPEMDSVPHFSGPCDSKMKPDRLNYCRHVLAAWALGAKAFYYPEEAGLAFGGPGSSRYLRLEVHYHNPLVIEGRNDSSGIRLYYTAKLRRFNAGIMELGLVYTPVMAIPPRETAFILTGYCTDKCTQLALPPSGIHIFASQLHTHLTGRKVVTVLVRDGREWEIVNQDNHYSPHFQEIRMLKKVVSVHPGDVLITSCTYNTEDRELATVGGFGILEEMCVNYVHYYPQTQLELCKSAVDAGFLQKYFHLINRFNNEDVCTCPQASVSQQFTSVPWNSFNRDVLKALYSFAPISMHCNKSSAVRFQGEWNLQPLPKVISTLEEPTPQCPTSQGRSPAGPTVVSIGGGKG
Description: DβH inhibition cell assay (SK-N-SH cellular homogenates, tyramine to octopamine). Format: biochemical. The note with it: SK-N-SH cell homogenate; for remaining activity at 1 µM: inhibitor 1 μM, read-out: DβH activity in % of Ctrl (1 μM); for remaining activity at 0.1 µM: inhibitor 0.1 μM, read-out: DβH activity in % of Ctrl (0.1 μM); for remaining activity at 10 µM: inhibitor 10 μM, read-out: DβH activity in % of Ctrl (10 μM). How it is done:
The ability of a compound to inhibit DβH activity may be assessed using the following cell assay. […] . […] Fetal bovine serum was removed from cells for 4 h prior to collection.
For the preparation of cellular homogenates, media was removed and cell monolayers were washed with 50 mM Tris-HCl pH 7.4. Cells were subsequently scrapped off the flasks and were resuspended in 50 mM Tris pH 7.4. Cell suspensions were homogenized with SilentCrusher M (Heidolph) for a short stroke and resultant homogenates were aliquoted and stored frozen at −80° C.
Total protein was quantified in cellular homogenates with BioRad Protein Assay (BioRad) using a standard curve of BSA (50-250 μg/mL).
DβH activity was measured by a modification of the method of Nagatsu and Udenfriend (Nagatsu, T. and S. Udenfriend: “Photometric assay of dopamine-hydroxylase activity in human blood.” Clin. Chem. 18(9): 980-3, 1972) which is based on the enzymatic hydroxylation of tyramine into octopamine. The octopamine formed is subsequently oxidized to p-hydroxybenzaldehyde and measured by spectrophotometry. In brief, reaction mixture (total volume 500 μl) contained: cellular homogenate (75 μg total protein) sodium acetate pH 5.0 (200 mM), NEM (30 mM), CuSO4 (5 μM), catalase aqueous solution (0.5 mg/mL), pargyline-HCl (1 mM), sodium fumarate (10 mM), ascorbic acid (10 mM), inhibitor or vehicle and tyramine (25 mM). After a 10 min pre-incubation period at 37° C., the reaction was initiated by the addition of tyramine. Reaction was carried out for 45 min at 37° C. before termination with 50 μl PCA (2 M).
Samples were centrifuged for 3 min at 16100 g and supernatants were subjected to solid phase extraction. Solid phase extraction was performed using either SPE cartridges ISOLUTE SCX-3 (100 mg, 1 mL) or SPE 2 mL fixed 96 well plates ISOLUTE SCX-3 (100 mg) previously equilibrated with MilliQ water. Columns/plates were centrifuged at 150 g for 2 min. Eluate was discarded and matrix was washed with 1 mL of MilliQ water after which octopamine was eluted with 2×0.25 mL ammonium hydroxide (4 M). The oxidation of octopamine to p-hydroxybenzaldehyde was carried out for 6 min with 100 μl sodium periodate (2%) and was stopped with 100 μl sodium metabisulfite (10%). Absorbance was measured at 330 nm on a Spectramax microplate reader (Molecular Devices, Sunnyvale, Calif.). All enzymatic reactions were performed in duplicate. Results are reported in the table below as activity in % of control at the inhibitor concentration tested.

On to `CN(C)C(=S)N1CC2CC2(c2cc(F)cc(F)c2)C1` (stereo not shown) [Example 46, 1-(3,5-Difluorophenyl)-N,N-dimethyl-3-azabicyclo[3.1.0]hexane-3-carbothioamide], for which the remaining activity at 1 µM came out at 31.6%. Take `Fc1cc(F)cc([C@]23C[C@H]2c2n[nH]c(=S)n2C3)c1` [Example 60, (5aS,6aR)-5a-(3,5-difluorophenyl)-5,5a,6,6a-tetrahydrocyclopropa[3,4]pyrrolo[2,1-c][1,2,4]triazole-3(2H)-thione]: the remaining activity at 1 µM stood at 60.2%. With `Cc1[nH]c(=S)n2c1C[C@H](c1c(F)c(F)cc(F)c1F)C2` [Example 96, (R)-1-methyl-6-(2,3,5,6-tetrafluorophenyl)-2,5,6,7-tetrahydro-3H-pyrrolo[1,2-c]imidazole-3-thione], the remaining activity at 0.1 µM came to 32% and the remaining activity at 1 µM came to 15%.

For `[2H]C([2H])([2H])c1[nH]c(=S)n2c1[C@@H]1C[C@]1(c1cc(Cl)ccc1F)C2` [Example 100, (5aS,6aR)-5a-(5-chloro-2-fluorophenyl)-1-(methyl-d3)-5,5a,6,6a-tetrahydrocyclopropa[3,4]pyrrolo[1,2-c]imidazole-3 (2H)-thione], the remaining activity at 0.1 µM is 0% and the remaining activity at 1 µM is 0%. Take `Cc1[nH]c(=S)n2c1[C@@H]1C[C@]1(c1cc(Cl)ccc1F)C2` [Example 99, (5aS,6aR)-5a-(5-chloro-2-fluorophenyl)-1-methyl-5,5a,6,6a-tetrahydrocyclopropa[3,4]pyrrolo[1,2-c]imidazole-3 (2H)-thione]: the remaining activity at 0.1 µM was 31.6% and the remaining activity at 1 µM is 1%. As for `NC(=S)N1CCC(c2cc(F)c(F)cc2F)C1` (stereo not shown) [Example 19, 3-(2,4,5-trifluorophenyl)pyrrolidine-1-carbothioamide], the remaining activity at 1 µM worked out at 33.4%. Consider `NC(=S)N1C[C@@H]2C[C@]2(c2cccs2)C1` [Example 28, (1R,5R)-1-(thiophen-2-yl)-3-azabicyclo[3.1.0]hexane-3-carbothioamide], for which the remaining activity at 0.1 µM turned out to be 0.2% and the remaining activity at 1 µM came out at 3.3%.

For the compound `NC(=S)N1CCC(c2ccc(F)cc2F)C1` (stereo not shown) [Example 5, 3-(2,4-difluorophenyl)pyrrolidine-1-carbothioamide], the remaining activity at 0.1 µM was 83.2% and the remaining activity at 10 µM is 0.8%. As for `Fc1ccc(F)c([C@@H]2Cc3c[nH]c(=S)n3C2)c1F` [Example 112, (S)-6-(2,3,6-trifluorophenyl)-2,5,6,7-tetrahydro-3H-pyrrolo[1,2-c]imidazole-3-thione], the remaining activity at 0.1 µM was found to be 70% and the remaining activity at 1 µM is 10.1%.

Consider `NC(=S)N1CC[C@H](c2ccccc2)C1` [Example 11, (R)-3-phenylpyrrolidine-1-carbothioamide], for which the remaining activity at 0.1 µM is 86.4%, the remaining activity at 1 µM amounted to 31.4% and the remaining activity at 10 µM is 1.5%. On to `Fc1cccc(F)c1[C@]12C[C@H]1c1c[nH]c(=S)n1C2` [Example 64, (5aS,6aR)-5a-(2,6-difluorophenyl)-5,5a,6,6a-tetrahydrocyclopropa[3,4]pyrrolo[1,2-c]imidazole-3(2H)-thione], for which the remaining activity at 0.1 µM was found to be 39.9% and the remaining activity at 1 µM is 7.2%. As to `Fc1cc(F)cc([C@]23C[C@H]2c2cn(C4CC4)c(=S)n2C3)c1` [Example 77, (5aS,6aR)-2-cyclopropyl-5 a-(3,5-difluorophenyl)-5,5a,6,6a-tetrahydrocyclopropa[3,4]pyrrolo[1,2-c]imidazole-3 (2H)-thione], the remaining activity at 1 µM amounted to 23%.

`Fc1ccc(Br)c(F)c1[C@H]1Cc2c[nH]c(=S)n2C1` [Example 118, (R)-6-(3-bromo-2,6-difluorophenyl)-2,5,6,7-tetrahydro-3H-pyrrolo[1,2-c]imidazole-3-thione]: the remaining activity at 0.1 µM came out at 33.8% and the remaining activity at 1 µM was determined as 0%. Take `Fc1cc(Cl)cc([C@]23C[C@H]2c2c[nH]c(=S)n2C3)c1` [Example 73, (5aS,6aR)-5a-(3-chloro-5-fluorophenyl)-5,5a,6,6a-tetrahydrocyclopropa[3,4]pyrrolo[1,2-c]imidazole-3 (2H)-thione]: the remaining activity at 0.1 µM stood at 41.7% and the remaining activity at 1 µM was 5.1%. The like results for `Fc1ccc(Br)c(F)c1[C@]12C[C@H]1c1c[nH]c(=S)n1C2` [Example 115, (5aS,6aR)-5a-(3-bromo-2,6-difluorophenyl)-5,5a,6,6a-tetrahydrocyclopropa[3,4]pyrrolo[1,2-c]imidazole-3 (2H)-thione] were, in that order, 0.5% and 0%. `Fc1cc(F)c(F)c([C@@H]2Cc3c[nH]c(=S)n3C2)c1` [Example 82, (S)-6-(2,3,5-trifluorophenyl)-2,5,6,7-tetrahydro-3H-pyrrolo[1,2-c]imidazole-3-thione]: the remaining activity at 0.1 µM amounted to 90% and the remaining activity at 1 µM is 20%. Regarding `Fc1ccc(Cl)cc1[C@@]12C[C@@H]1c1c[nH]c(=S)n1C2` [Example 110, (5aR,6aS)-5a-(5-chloro-2-fluorophenyl)-5,5a,6,6a-tetrahydrocyclopropa[3,4]pyrrolo[1,2-c]imidazole-3 (2H)-thione], the remaining activity at 0.1 µM turned out to be 73.8% and the remaining activity at 1 µM was 15.9%. On to `Fc1ccc(F)c(C23CC2CN(C(=S)NCCS)C3)c1` (stereo not shown) [Example 40, 1-(2,5-difluorophenyl)-N-(2-mercaptoethyl)-3-azabicyclo[3.1.0]hexane-3-carbothioamide], for which the remaining activity at 0.1 µM amounted to 87.9%.

As to `NC(=S)N1C[C@H]2C[C@@]2(c2cc(F)cc(F)c2)C1` [Example 35, (1R,5S)-1-(3,5-difluorophenyl)-3-azabicyclo[3.1.0]hexane-3-carbothioamide], the remaining activity at 0.1 µM was 95%, the remaining activity at 1 µM turned out to be 34.3% and the remaining activity at 10 µM turned out to be 0%. Consider `Fc1cc(F)c(F)c([C@@H]2Cc3c[nH]c(=S)n3C2)c1F` [Example 61, (S)-6-(2,3,5,6-tetrafluorophenyl)-6,7-dihydro-2H-pyrrolo[1,2-c]imidazole-3(5H)-thione], for which the remaining activity at 0.1 µM is 52.2% and the remaining activity at 1 µM was determined as 8.4%. Consider `NC(=S)N1CCC(c2ccc(F)c(F)c2)C1` (stereo not shown) [Example 20, 3-(3,4-difluorophenyl)pyrrolidine-1-carbothioamide], for which the remaining activity at 1 µM was found to be 44.8%. For the compound `Fc1cccc(Cl)c1[C@]12C[C@H]1c1c[nH]c(=S)n1C2` [Example 89, (5aS,6aR)-5a-(2-chloro-6-fluorophenyl)-5,5a,6,6a-tetrahydrocyclopropa[3,4]pyrrolo[1,2-c]imidazole-3 (2H)-thione], the remaining activity at 1 µM was found to be 29.8%. Turning to `Fc1cc(F)c(F)c([C@H]2Cc3c[nH]c(=S)n3C2)c1F` [Example 62, (R)-6-(2,3,5,6-tetrafluorophenyl)-6,7-dihydro-2H-pyrrolo[1,2-c]imidazole-3(5H)-thione], the remaining activity at 0.1 µM came to 43.1% and the remaining activity at 1 µM came out at 9.8%.

In the case of `Fc1ccc(Cl)cc1[C@]12C[C@H]1c1c[nH]c(=S)n1C2` [Example 74, (5aS,6aR)-5a-(5-chloro-2-fluorophenyl)-5,5a,6,6a-tetrahydrocyclopropa[3,4]pyrrolo[1,2-c]imidazole-3 (2H)-thione], the remaining activity at 0.1 µM amounted to 21.9% and the remaining activity at 1 µM is 1.8%.
